{
  "source": "patent US20190015361A1",
  "about": "(Maxwell Biosciences, Inc., priority 2017, published 2019)",
  "key": {"[1]": {"target": "Aβ42 monomers (Homo sapiens, UniProt P05067)", "sequence (P05067 672-713 limits assumed)": "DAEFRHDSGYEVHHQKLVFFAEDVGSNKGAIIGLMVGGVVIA", "conditions": "Aβ42 monomers immobilized on SPR chip; cited from earlier work"}, "[2]": {"target": "Aβ42 oligomers (Homo sapiens, UniProt P05067)", "sequence (P05067 672-713 limits assumed)": "as above", "conditions": "Aβ42 oligomers immobilized on SPR chip; cited from earlier work"}, "[3]": {"target": "T1, Aβ42 (Homo sapiens, UniProt P05067)", "T1 construct": "Aβ42 (residues 1-42 of the Aβ peptide); purchased AnaSpec (Fremont Calif., USA)", "T1 sequence (P05067 672-713 limits assumed)": "as above", "assay": "Transmission electron microscopy of Aβ42 fibril formation", "protocol": "For TEM and CD analysis, the samples were prepared as described in Brogi et al. [REF: Disease-modifying anti-Alzheimer's drugs: inhibitors of human cholinesterases interfering with β-amyloid aggregation. Brogi S, Butini S, Maramai S, Colombo R, Verga L, Lanni C, De Lorenzi E, Lamponi S, Andreassi M, Bartolini M, Andrisano V, Novellino E, Campiani G, Brindisi M, Gemma S. CNS Neurosci Ther. 2014 Jui; 20(7):624-32. Pubmed ID PMID 24935788], and analyzed at 50 and/or 100 μM concentrations. Briefly, to 1 mg lyophilized Aβ42 powder (AnaSpec) […] of 1% NH4OH solution was added. After 1 minute sonication, the solution was diluted with 20 mM phosphate buffer, pH 7.4, to the desired concentration, and divided into aliquots, which were freeze-dried and stored at −80° C. Each lyophilized peptide aliquot was resuspended in 20 mM phosphate buffer, pH 7.4 immediately before use. Samples were sonicated 3 min in an ultrasonic bath, to break down pre-formed aggregates and increase the peptide's effective concentration [REF: Sonication of proteins causes formation of aggregates that resemble amyloid. Stathopulos P B. Scholz G A, Hwang Y M, Rumfeldt J A, Lepock J R, Meiering E M. Protein Sci. 2004 November; 13(11):3017-27. Pubmed ID PMID 15459333]. […] Samples were analyzed either immediately after solubilization, or after different lengths of incubation time, as noted in FIG. legends. […]"}, "[4]": {"tested_on": "human microglia", "assay": "TNFα and IL-6 release from microglia (ELISA)", "type": "cell-based", "conditions": "microglial cell-free supernatant, 30 μM, 2 days' incubation"}, "[5]": {"target": "Aβ42 (t = 0 days) (Homo sapiens, UniProt P05067)", "sequence (P05067 672-713 limits assumed)": "as above", "assay": "SPRi equilibrium binding of LL-37 to immobilized Aβ42 (low-MW oligomers)", "conditions": "equilibrium fit"}, "[6]": {"target": "Aβ40 (t = 0 days) (Homo sapiens, UniProt P05067)", "sequence (P05067 672-711)": "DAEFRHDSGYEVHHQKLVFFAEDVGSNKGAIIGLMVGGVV", "assay": "SPRi equilibrium binding of LL-37 to immobilized Aβ40"}, "[7]": {"tested_on": "Aβ40 (t=0 days), Aβ42 (t=0 days), Aβ42 (t=24 days)", "assay": "SPRi interaction with the three immobilized Aβ forms", "type": "binding, human"}, "[8]": {"target": "T1, Aβ42", "assay": "Circular dichroism conformational analysis of Aβ42", "conditions": "50 μM Aβ42 in the presence of LL-37 (1:1), t=0 and 24 hours", "protocol": "For TEM and CD analysis, the samples were prepared as described in Brogi et al. [REF: Disease-modifying anti-Alzheimer's drugs: inhibitors of human cholinesterases interfering with β-amyloid aggregation. Brogi S, Butini S, Maramai S, Colombo R, Verga L, Lanni C, De Lorenzi E, Lamponi S, Andreassi M, Bartolini M, Andrisano V, Novellino E, Campiani G, Brindisi M, Gemma S. CNS Neurosci Ther. 2014 Jui; 20(7):624-32. Pubmed ID PMID 24935788], and analyzed at 50 and/or 100 μM concentrations. Briefly, to 1 mg lyophilized Aβ42 powder (AnaSpec) […] of 1% NH4OH solution was added. […] Samples were analyzed either immediately after solubilization, or after different lengths of incubation time, as noted in FIG. legends.\nCD spectra were collected at 20° C. using a Jasco-810 spectrophotometer and a quartz cuvette with a 0.1 cm path length. […] Molar mean residue ellipticity [θ] is expressed in degrees cm2 dmol−1, and calculated as [θ]=θobs MWR/(10 l c), where θ is observed ellipticity in degrees; MWR, peptide mean residue molar weight; l, the optical path length in cm; and c, peptide concentration in […].\nAs in TEM analysis, spectra were recorded immediately after dissolving peptide according to [REF: Disease-modifying anti-Alzheimer's drugs: inhibitors of human cholinesterases interfering with β-amyloid aggregation. […]"}, "[9]": {"target": "Aβ42 (t = 24 days) (Homo sapiens, UniProt P05067)", "sequence (P05067 672-713 limits assumed)": "as the sequence (P05067 672-713 limits assumed) above", "assay": "SPRi equilibrium binding of LL-37 to immobilized Aβ42 (high-MW oligomers)", "conditions": "equilibrium fit"}},
  "data": [
    {"molecule": "CC[C@]12C=CCN3CC[C@]4(C(=C(C(=O)OC)C1)Nc1ccccc14)[C@@H]32", "note": "[tabersonine]", "values": [
      {"measurement": "Kd", "setting": "[1]", "value": 69, "unit": "µM"},
      {"measurement": "Kd", "setting": "[2]", "value": 535, "unit": "µM"}
    ]},
    {"molecule": "LL-37", "values": [
      {"measurement": "Aβ42 fibril formation (TEM)", "setting": "[3]; 50 μM Aβ42 co-incubated with equimolar LL-37, t=0, 3 and 9 days", "value": "inhibits Aβ42 fibril formation"},
      {"measurement": "fibrils seen by TEM", "setting": "[3]; 50 μM Aβ42 with equimolar LL-37, t=9 days", "value": "no visible fibrils present"},
      {"measurement": "IL-6 release", "setting": "[4]", "value": "induced release"},
      {"measurement": "TNFα release", "setting": "[4]", "value": "induced release"},
      {"measurement": "Rmax (maximal response)", "setting": "[5]; LL-37 1-100 μM injected on immobilized Aβ42 (t=0 days)", "value": 1.56},
      {"measurement": "KA", "setting": "[5]; immobilized Aβ42 (t=0 days)", "value": 75100, "unit": "M⁻¹"},
      {"measurement": "Rmax (maximal response)", "setting": "[6]; LL-37 1-100 μM injected on immobilized Aβ40 (t=0 days), nonlinear fit of SPRi response at equilibrium", "value": 0.59},
      {"measurement": "KA", "setting": "[6]; immobilized Aβ40 (t=0 days), equilibrium fit", "value": 120000, "unit": "M⁻¹"},
      {"measurement": "SPRi interaction signal", "setting": "[7]; analyte flowed onto the SPRi chip for 10 minutes, all three Aβ forms", "value": "specific and reversible interactions"},
      {"measurement": "Aβ42 secondary structure (CD)", "setting": "[8]", "value": "prevented, to a large degree, from forming typical β structure"},
      {"measurement": "Rmax (maximal response)", "setting": "[9]; LL-37 1-100 μM injected on immobilized Aβ42 (t=24 days)", "value": 4.43},
      {"measurement": "KA", "setting": "[9]; immobilized Aβ42 (t=24 days)", "value": 49200, "unit": "M⁻¹"}
    ]},
    {"molecule": "same amino acid composition as natural LL-37, sequence GLKLRFEFSKIKGEFLKTPEVRFRDIKLKDNRISVQR; from AnaSpec [scrambled LL-37, reference compound]", "values": [
      {"measurement": "binding affinities constants", "setting": "[7]; same equilibrium analysis, control scrambled-sequence peptide", "value": "could not be calculated"}
    ]}
  ]
}
